This note sets out measurements from ChEMBL document CHEMBL1144945, “Development of progesterone receptor antagonists from 1,2-dihydrochromeno[3,4-f]quinoline agonist pharmacophore” (Bioorg Med Chem Lett, 2003).

The target in assay [1] is T1, Mineralocorticoid receptor (Homo sapiens) (UniProt P08235).
T1 sequence (whole entry): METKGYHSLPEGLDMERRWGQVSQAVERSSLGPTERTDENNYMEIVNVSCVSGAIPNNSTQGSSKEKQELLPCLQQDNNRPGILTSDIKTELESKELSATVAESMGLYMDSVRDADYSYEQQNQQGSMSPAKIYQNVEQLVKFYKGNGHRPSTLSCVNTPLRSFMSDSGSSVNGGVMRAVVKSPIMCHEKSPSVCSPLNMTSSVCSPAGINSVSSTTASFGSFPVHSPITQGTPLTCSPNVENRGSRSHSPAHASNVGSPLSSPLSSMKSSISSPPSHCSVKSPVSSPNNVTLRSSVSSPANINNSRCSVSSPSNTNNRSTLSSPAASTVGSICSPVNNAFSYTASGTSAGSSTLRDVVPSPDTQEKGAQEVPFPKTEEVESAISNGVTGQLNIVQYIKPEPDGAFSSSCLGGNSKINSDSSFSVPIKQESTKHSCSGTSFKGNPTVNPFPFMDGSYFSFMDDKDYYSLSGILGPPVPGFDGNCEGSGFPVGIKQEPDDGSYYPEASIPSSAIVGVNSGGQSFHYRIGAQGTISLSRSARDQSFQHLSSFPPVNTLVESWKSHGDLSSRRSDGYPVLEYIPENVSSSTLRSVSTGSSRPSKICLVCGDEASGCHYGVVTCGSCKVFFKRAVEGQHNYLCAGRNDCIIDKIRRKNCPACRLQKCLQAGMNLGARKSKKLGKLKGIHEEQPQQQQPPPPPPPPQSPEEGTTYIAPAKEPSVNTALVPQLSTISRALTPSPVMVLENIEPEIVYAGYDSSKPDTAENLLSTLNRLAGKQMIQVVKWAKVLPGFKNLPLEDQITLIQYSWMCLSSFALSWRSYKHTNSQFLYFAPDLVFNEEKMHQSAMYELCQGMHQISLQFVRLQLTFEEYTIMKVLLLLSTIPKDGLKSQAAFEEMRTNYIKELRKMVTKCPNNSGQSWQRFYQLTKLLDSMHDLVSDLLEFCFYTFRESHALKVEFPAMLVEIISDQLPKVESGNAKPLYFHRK
As to the kind of experiment: Antagonist efficacy for mineralocorticoid receptor (hMR); Not active. Format: functional.

Assay [2] concerns the target T2, Mineralocorticoid receptor (Homo sapiens, UniProt P08235).
T2 sequence (P08235 whole entry): T1 sequence (whole entry)
The assay can be described thus: Inhibition of antagonist activity towards mineralocorticoid receptor (hMR); Not active. Format: functional.

Assay [3] has as its target T3, Progesterone receptor (Homo sapiens) (UniProt P06401).
T3 sequence (whole entry): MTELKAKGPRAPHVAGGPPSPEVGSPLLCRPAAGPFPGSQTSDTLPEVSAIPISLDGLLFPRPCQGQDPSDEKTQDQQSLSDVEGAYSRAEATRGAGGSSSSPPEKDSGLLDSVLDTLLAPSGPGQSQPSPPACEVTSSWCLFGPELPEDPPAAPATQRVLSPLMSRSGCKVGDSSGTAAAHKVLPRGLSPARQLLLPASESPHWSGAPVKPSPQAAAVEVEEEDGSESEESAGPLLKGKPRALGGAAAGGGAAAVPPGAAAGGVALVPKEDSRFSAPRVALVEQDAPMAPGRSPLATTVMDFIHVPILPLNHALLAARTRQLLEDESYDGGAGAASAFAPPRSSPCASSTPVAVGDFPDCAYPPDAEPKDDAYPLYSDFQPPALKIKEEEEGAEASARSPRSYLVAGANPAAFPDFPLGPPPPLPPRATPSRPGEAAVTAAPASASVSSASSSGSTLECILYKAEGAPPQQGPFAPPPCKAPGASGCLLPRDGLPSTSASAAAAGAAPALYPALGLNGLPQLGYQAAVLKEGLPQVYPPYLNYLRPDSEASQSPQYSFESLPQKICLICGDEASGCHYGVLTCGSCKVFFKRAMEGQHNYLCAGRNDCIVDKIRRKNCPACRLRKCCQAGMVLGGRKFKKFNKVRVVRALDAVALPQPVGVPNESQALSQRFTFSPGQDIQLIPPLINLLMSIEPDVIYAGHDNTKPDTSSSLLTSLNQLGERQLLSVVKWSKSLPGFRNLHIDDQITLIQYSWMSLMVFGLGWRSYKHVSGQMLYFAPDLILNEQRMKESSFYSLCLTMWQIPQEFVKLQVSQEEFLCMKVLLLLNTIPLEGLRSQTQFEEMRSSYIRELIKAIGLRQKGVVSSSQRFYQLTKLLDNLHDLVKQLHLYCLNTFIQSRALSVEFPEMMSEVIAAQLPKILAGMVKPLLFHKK
The assay can be described thus: Antagonist efficacy for human progesterone in CV-1 cells. Format: functional, cell-based.

In assay [4] the target is T4, Estrogen receptor (Homo sapiens) (UniProt Q92731+P03372). As to the kind of experiment: Antagonist efficacy for estrogen (hER) receptor; Not active. Format: functional.
The target in assay [5] is T5, Progesterone receptor (Homo sapiens, UniProt P06401).
T5 sequence (P06401 whole entry): T3 sequence (whole entry)
As to the kind of experiment: Effective concentration for antagonistic activity towards human progesterone in CV-1 cells. Format: functional, cell-based.

Assay [6] has as its target T4, Estrogen receptor (Homo sapiens). As to the kind of experiment: Antagonist efficacy for Estrogen receptor; Not active. Format: functional.
Assay [7] deals with T5, Progesterone receptor. The assay can be described thus: Effective concentration for human progesterone receptor in T47D human breast cancer cell; not active (<20% efficacy and/or >10 mM potency). The conditions noted are these: cancer cell lines.
Assay [8] has as its target T3, Progesterone receptor (Homo sapiens). As to the kind of experiment: Agonist efficacy for human progesterone receptor in T47D human breast cancer cell; not active (<20% efficacy and/or >10 mM potency). Format: functional, cell-based.
The target of assay [9] is T5, Progesterone receptor.
Description: Antagonistic activity at human progesterone receptor in CV-1 cells.
The target in assay [10] is T5, Progesterone receptor. This is another data set of the same source.
Description: Binding affinity at human progesterone receptor.
Assay [11] deals with T5, Progesterone receptor. The source holds these as a separate data set.
Description: Inhibition of human progesterone receptor activation in T47D human breast cancer cell.

Active and inactive are the calls of the source.

Consider `CC1=CC(C)(C)Nc2ccc3c(c21)COc1c(F)cc(F)cc1-3`, for which the Efficacy entry in [1] and in assay [4] was “inactive” each time. Moreover, the IC50 (as a rule, the midpoint of a concentration-inhibition curve) in assay [2] is “Not Active”. For the same compound, the Efficacy in [3] amounted to 83%. In addition, the EC50 – broadly, the concentration giving half of the maximal effect – at Progesterone receptor [5] was 0.0254 µM.

On to `CC1=CC(C)(C)Nc2ccc3c(c21)COc1c(F)cc(Br)cc1-3`, for which the Efficacy entry in assay [6], in assay [1] and in [8] was “inactive” throughout. The figures for the IC50 result (in assay [2]; against Progesterone receptor [11]) were “Not Active” and 0.461 µM, respectively. Further, the figures for the EC50 result at Progesterone receptor [7] and on Progesterone receptor [9] were “Not Active” and 0.057 µM, respectively. In addition, the Ki (commonly a dissociation constant, usually derived from enzyme kinetics or from competition with a known ligand) on Progesterone receptor [10] is 0.0124 µM.

On to `CC1CC(C)(C)Nc2ccc3c(c21)COc1c(F)cc(F)cc1-3` (centres undefined), for which the Efficacy entry in assay [6], in assay [1] and in assay [8] was “inactive” each time. For the same compound, the figures for the IC50 entry (in assay [2]; against Progesterone receptor [11]) were “Not Active” and 0.217 µM, respectively. Moreover, the EC50 result at Progesterone receptor [7] is “Not Active”; at Progesterone receptor [9] it was 0.04 µM. Further, at Progesterone receptor [10], the Ki was 0.045 µM.

Turning to `CC1CC(C)(C)Nc2ccc3c(c21)COc1ccc([N+](=O)[O-])cc1-3` (centres undefined), the Efficacy result in [6] and in assay [8] was “inactive” in each case. Further, the Efficacy in assay [1] was 58%. The values for the IC50 (in [2] (read-out: IC50); against Progesterone receptor [11]) were 2.87 µM (not active) and 0.104 µM, respectively. For the same compound, the EC50 result at Progesterone receptor [7] is “Not Active”; at Progesterone receptor [9], 0.052 µM. Affinity on Progesterone receptor [10] was put at a Ki of 0.144 µM.

Turning to `CC1=CC(C)(C)Nc2ccc3c(c21)COc1c(F)cc(Cl)cc1-3`, the Efficacy result in assay [1] and in [4] was “inactive” each time. In addition, in assay [2], the IC50 result was “Not Active”. Further, the Efficacy in assay [3] came to 74%. For the same compound, the EC50 on Progesterone receptor [5] is 0.0135 µM.
